Common to all, as to assay: relative viability (nuclei count vs DMSO), 5 days (fraction); higher = more cells survive
Compound in the assay “CUDC-101 + Phenformin”: C#Cc1cccc(Nc2ncnc3cc(OC)c(OCCCCCCC(=O)NO)cc23)c1 [CUDC-101] + N=C(N)NC(=N)NCCc1ccccc1 [Phenformin] (partner 250 µM)
The essentials:
(§1)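 The day after seeding in 1536-well plates, lung cancer cell lines were treated by pin tool with a single drug, or with a fixed anchor-drug dose together with five library-drug doses (not always all listed) in √10 steps. After 5 days, a combined fix-and-stain solution (final 0.05% Triton X-100, 1% formaldehyde, 1 ug/ml Hoechst) was added. Nuclei counted on 4× images gave relative viability as treated counts over vehicle counts, reported as the median of duplicate plates.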

Compound in the assay “Vandetanib + Lapatinib”: COc1cc2/c(=N/c3ccc(Br)cc3F)nc[nH]c2cc1OCC1CCN(C)CC1 [Vandetanib] + CS(=O)(=O)CCNCc1ccc(-c2ccc3ncnc(Nc4ccc(OCc5cccc(F)c5)c(Cl)c4)c3c2)o1 [Lapatinib] (partner 2 µM)
Summed up: as §1

Compound in the assay “NVP-TAE684 + Decitabine”: COc1cc(N2CCC(N3CCN(C)CC3)CC2)ccc1Nc1ncc(Cl)c(Nc2ccccc2S(=O)(=O)C(C)C)n1 [NVP-TAE684] + Nc1ncn([C@H]2C[C@H](O)[C@@H](CO)O2)c(=O)n1 [Decitabine] (partner 2 µM)
The essentials: as §1

Compound in assay [1]: C1=CC=C2C(=C1)N=C(S2)C(C#N)C3=NC(=NC=C3)NCCC4=CN=CC=C4 + CS(=O)(=O)N1CCN(Cc2cc3nc(-c4cccc5[nH]ncc45)nc(N4CCOCC4)c3s2)CC1 [Pictilisib] (partner 1 µM)
The essentials: as §1

This is an account of results in the supplement of paper PMC10307832.

As for UMC-11, the relative viability in the assay with CUDC-101 + Phenformin (first compound 0.01 µM) was found to be 0.337; with CUDC-101 + Phenformin (first compound 0.03162 µM), 0.285; in the assay with CUDC-101 + Phenformin (first compound 0.1 µM) it was 0.262; with CUDC-101 + Phenformin (first compound 0.3162 µM), 0.167; in the assay with CUDC-101 + Phenformin (first compound 1 µM), 0.102; in the assay with Vandetanib + Lapatinib (first compound 0.02 µM), 0.816. For the same cell line, the relative viability in the assay with Vandetanib + Lapatinib (first compound 0.06325 µM) was 0.961; with Vandetanib + Lapatinib (first compound 0.2 µM) it was 0.664; in the assay with Vandetanib + Lapatinib (first compound 0.6325 µM), 0.892; with Vandetanib + Lapatinib (first compound 2 µM), 1.01; with NVP-TAE684 + Decitabine (first compound 0.2 µM), 0.582; with NVP-TAE684 + Decitabine (first compound 0.6325 µM), 0.581. The relative viability was 0.346 in the assay with NVP-TAE684 + Decitabine (first compound 2 µM); 0.717 in assay [1] (first compound 0.005 µM); 0.748 in assay [1] (first compound 0.01581 µM); 0.689 in assay [1] (first compound 0.05 µM); 0.877 in assay [1] (first compound 0.1581 µM); 0.777 in assay [1] (first compound 0.5 µM).
